For 14 compounds, IC50 and selectivity ratio results are on record in ChEMBL document CHEMBL1139001, “Alkyl-linked bis-THTT derivatives as potent in vitro trypanocidal agents” (Bioorg Med Chem Lett, 2006).

SMILES strings stand for the structures. pIC50: −log10 of the molar value. Where only a bound is given, the exact number is not on record here.

The test system of one data set is Leishmania donovani. The data set can be described thus: Antiprotozoal activity against Leishmania donovani. It is filed as functional, organism-based.
Data set [1] concerns Trypanosoma brucei rhodesiense. The data set can be described thus: Antitrypanosomal activity against Trypanosoma brucei rhodesiense STIB900. It is filed as functional, organism-based.
The subject of the next data set is Plasmodium falciparum. In words: Antiplasmodial activity against Plasmodium falciparum 3D7. The data set is classed as functional, organism-based.
The test system of the next data set is KB. In words: Cytotoxicity against KB cell line. The data set is classed as functional, cell-based. Conditions: Homo sapiens.
Data set [2] is described as follows: Therapeutic index (cytotoxicity/antiprotozoal activity). The note with it: human, KB cells; read-out: Ratio IC50. The data set is classed as cell-based.
Data set [3] is described as follows: Therapeutic index (cytotoxicity/antitrypanosomal activity). It is filed as cell-based. Conditions: human, KB cells; read-out: Ratio IC50.
Data set [4] in a line: Therapeutic index, ratio of cytotoxicity/antiplasmodial activity. The note with it: human, KB cells; read-out: Ratio IC50. The data set is classed as cell-based.

In general, pIC50 refers to the negative decadic logarithm of the IC50, by convention in mol/L.

With `CC(C)(CN1CN(C(Cc2ccccc2)C(=O)O)CSC1=S)CN1CN(C(Cc2ccccc2)C(=O)O)CSC1=S` (stereo unspecified), the pIC50 was 5.26 in the data set on Leishmania donovani, 5.98 in data set [1], 5.02 in the data set with Plasmodium falciparum and 5.66 in the data set on KB. The selectivity ratio amounted to 0.4 in data set [2], 2.1 in data set [3] and 0.2 in data set [4].
In the case of `NC(=O)CCC(C(=O)O)N1CSC(=S)N(CCCCCCN2CN(C(CCC(N)=O)C(=O)O)CSC2=S)C1` (stereo unspecified), the pIC50 in the data set with Leishmania donovani was less than 4.31; in data set [1], 5.03; in the data set with Plasmodium falciparum, 4.96; in the data set on KB it was 4.28. The values for the selectivity ratio in data set [3] and in data set [4] were 5.8 and 4.7, respectively.
As for `O=C(O)CN1CSC(=S)N(CCCCCCN2CN(CC(=O)O)CSC2=S)C1`, the pIC50 is 5.15 with Leishmania donovani, 6.14 in data set [1], 4.96 in the data set on Plasmodium falciparum and 5.08 with KB. For the same compound, the selectivity ratio in data set [2] came to 1.2; in data set [3], 11.4; in data set [4], 0.8.
Regarding `O=C(O)CCCCN1CSC(=S)N(CCCCCCN2CN(CCCCC(=O)O)CSC2=S)C1`, the pIC50 is 5.19 in the data set on Leishmania donovani, 6.44 in data set [1], 4.77 with Plasmodium falciparum and 4.79 in the data set on KB. Besides, the selectivity ratio in data set [2] was determined as 2.4; in data set [3], 44.4; in data set [4] it was 1.
Regarding `CC(C)(CN1CN(CC(=O)O)CSC1=S)CN1CN(CC(=O)O)CSC1=S`, the pIC50 is 5.16 in the data set on Leishmania donovani, 5.54 in data set [1], 5.42 in the data set with Plasmodium falciparum and 5.29 in the data set on KB. Besides, the values for the selectivity ratio in data set [2], in data set [3] and in data set [4] were 0.7, 1.7 and 1.3, respectively.
Consider `O=C(O)CC(C(=O)O)N1CSC(=S)N(CCCCCCN2CN(C(CC(=O)O)C(=O)O)CSC2=S)C1` (stereo unspecified), for which the pIC50 with Leishmania donovani was 4.52; in data set [1], 5.44; in the data set with Plasmodium falciparum, 4.63; in the data set with KB, 4.12. Moreover, in data set [4], the selectivity ratio worked out at 0.9.
As for `CSCCC(C(=O)O)N1CSC(=S)N(CCCCCCN2CN(C(CCSC)C(=O)O)CSC2=S)C1` (stereo unspecified), the pIC50 in the data set on Leishmania donovani is 5.14; in data set [1], 5.64; in the data set on Plasmodium falciparum, 4.85; with KB, 4.28. In addition, the results for the selectivity ratio in data set [2], in data set [3] and in data set [4] were 7.3, 41.2 and 3.7, respectively.
Take `O=C(O)CCCN1CSC(=S)N(CCCCCCN2CN(CCCC(=O)O)CSC2=S)C1`: the pIC50 with Leishmania donovani was 4.61; in data set [1], 5.37; in the data set on Plasmodium falciparum, 4.36; in the data set on KB, 4.93. In data set [4], the selectivity ratio was determined as 2.
For the compound `CC(C)(CN1CN(CCCCC(=O)O)CSC1=S)CN1CN(CCCCC(=O)O)CSC1=S`, the negative-log IC50 (pIC50) in the data set on Leishmania donovani was 5.14; in data set [1], 5.61; in the data set with Plasmodium falciparum, 5.04; in the data set with KB, 5.09. The selectivity ratio was 1.1 in data set [2], 3.4 in data set [3] and 0.9 in data set [4].
In the case of `O=C(O)C(Cc1ccccc1)N1CSC(=S)N(CCCCCCN2CN(C(Cc3ccccc3)C(=O)O)CSC2=S)C1` (stereo unspecified), the pIC50 with Leishmania donovani was 5.27; in data set [1], 6.14; with Plasmodium falciparum, 5.04; in the data set with KB, 5.24. In addition, the selectivity ratio in data set [2] was determined as 1.1; in data set [3], 7.9; in data set [4], 0.6.
As for `O=C(O)CCN1CSC(=S)N(CCCCCCN2CN(CCC(=O)O)CSC2=S)C1`, the negative-log IC50 (pIC50) was 5.66 with Leishmania donovani, 6.25 in data set [1], 4.88 in the data set with Plasmodium falciparum and 4.91 in the data set with KB. Further, the selectivity ratio in data set [2] came out at 5.6; in data set [3], 21.8; in data set [4], 0.9.
As for `NC(=O)CC(C(=O)O)N1CSC(=S)N(CCCCCCN2CN(C(CC(N)=O)C(=O)O)CSC2=S)C1` (stereo unspecified), the negative logarithm of the IC50 (pIC50) was 4.71 in the data set on Leishmania donovani, 5.27 in data set [1], 4.40 in the data set on Plasmodium falciparum and less than 4.29 in the data set on KB. Also, the selectivity ratio was more than 30 in data set [2], more than 10 in data set [3] and more than 2 in data set [4].
The compound `N=C(N)c1ccc(OCCCCCOc2ccc(C(=N)N)cc2)cc1` [PENTAMIDINE] gave a pIC50 in data set [1] of 7.96.
In turn, `COc1cc([C@@H]2c3cc4c(cc3[C@H](O)[C@H]3COC(=O)[C@H]23)OCO4)cc(OC)c1OC` [PODOFILOX] showed a pIC50 in the data set with KB of 8.44.
